pIC50: −log10 of the molar value.
Biological target: purified human, His-tagged PRC2 complex (Homo sapiens (Human), UniProt O75530)
Assay: Hot Spot HMT assay, inhibition of PRC2 enzymatic activity
Type: biochemical
Settings: 10 nM PRC2 complex, 1 μM 3H-SAM, core histone H3, 10-point dose-response
Excerpt: The assay uses purified human, His-tagged PRC2 complex, including N-terminal His-tagged EZH2 enzyme, N-terminal Flag-tagged embryonic ectoderm development protein (EED), N-terminal His-tagged suppressor of zeste 12 (SUZ12), N-terminal His-tagged AEBP2, and N-terminal His-tagged RbAp48. In this assay, the transfer of the tritiated methyl group from radiolabeled S-adenosyl methionine (SAM) to purified core histone protein by EZH2 is quantitated after filtration to determine the activity of the core PRC2 complex in the presence and absence of compound.
The initial starting concentration for the serial dilutions of each compound was 1.0 μM. […] SAH (S-(5-adenosyl)-L-homocysteine) was used as a positive control for assay validation.
An aliquot of each serial dilution of test compound was added to deep 384 well plate using Acoustic Technology instrument (Echo 550, LabCyte) containing reaction buffer (50 mM Tris-HCl (pH 8.)), 0.01% Brij35, 1 mM EDTA, 1 mM DTT, 1 mM PMSF and 1% DMSO), 10 nM purified PRC2 complex and 0.05 mg/ml core histone H3 in a 5 μl volume. The reaction was mixed gently and then pre-incubated for 20 min at 30° C. The enzymatic reaction was initiated by adding 1 μM S-Adenosyl-L-[methyl-^3H]methionine and incubated for 1 hr at 30° C. After 1 hr, the reaction product was detected using a filter binding method and the amount of tritiated H3 core histone was quantitated using a scintillation counter. […] Key: A=<100 nM; B=>100 nM-<500 nM; and C=>500 nM.

purified human, His-tagged PRC2 complex, sequence (O75530 whole entry): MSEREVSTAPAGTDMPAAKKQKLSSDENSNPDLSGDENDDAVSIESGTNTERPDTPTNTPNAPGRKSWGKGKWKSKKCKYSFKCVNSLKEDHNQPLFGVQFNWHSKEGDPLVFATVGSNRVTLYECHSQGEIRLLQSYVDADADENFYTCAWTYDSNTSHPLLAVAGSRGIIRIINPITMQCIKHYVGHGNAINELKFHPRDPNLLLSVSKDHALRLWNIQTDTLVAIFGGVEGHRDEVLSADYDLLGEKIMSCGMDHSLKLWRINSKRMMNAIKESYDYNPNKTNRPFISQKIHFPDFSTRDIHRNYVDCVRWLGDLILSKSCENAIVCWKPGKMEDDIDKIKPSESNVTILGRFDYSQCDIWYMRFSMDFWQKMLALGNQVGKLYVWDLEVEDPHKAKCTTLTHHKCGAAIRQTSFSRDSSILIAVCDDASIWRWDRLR
purified human, His-tagged PRC2 complex, sequence (Q15910 whole entry partner): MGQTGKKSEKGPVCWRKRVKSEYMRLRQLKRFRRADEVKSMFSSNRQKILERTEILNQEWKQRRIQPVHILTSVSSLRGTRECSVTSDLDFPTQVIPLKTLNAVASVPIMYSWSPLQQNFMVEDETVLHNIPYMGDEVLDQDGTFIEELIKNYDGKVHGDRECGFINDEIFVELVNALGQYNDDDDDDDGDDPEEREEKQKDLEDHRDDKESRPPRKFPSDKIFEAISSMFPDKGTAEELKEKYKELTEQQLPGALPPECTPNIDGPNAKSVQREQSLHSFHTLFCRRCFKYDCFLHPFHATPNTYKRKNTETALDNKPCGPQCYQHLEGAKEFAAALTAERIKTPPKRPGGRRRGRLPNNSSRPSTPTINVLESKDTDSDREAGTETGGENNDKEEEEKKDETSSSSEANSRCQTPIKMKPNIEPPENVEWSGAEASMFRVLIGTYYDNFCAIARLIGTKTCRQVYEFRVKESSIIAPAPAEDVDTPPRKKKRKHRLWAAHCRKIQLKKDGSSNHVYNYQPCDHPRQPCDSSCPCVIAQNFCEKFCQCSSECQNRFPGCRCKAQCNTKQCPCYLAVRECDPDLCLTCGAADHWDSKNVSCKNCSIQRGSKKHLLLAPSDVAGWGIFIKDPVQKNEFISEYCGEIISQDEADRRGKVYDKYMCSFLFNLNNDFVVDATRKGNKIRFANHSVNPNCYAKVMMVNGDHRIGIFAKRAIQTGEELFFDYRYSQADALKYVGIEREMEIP
purified human, His-tagged PRC2 complex, sequence (Q15022 whole entry partner): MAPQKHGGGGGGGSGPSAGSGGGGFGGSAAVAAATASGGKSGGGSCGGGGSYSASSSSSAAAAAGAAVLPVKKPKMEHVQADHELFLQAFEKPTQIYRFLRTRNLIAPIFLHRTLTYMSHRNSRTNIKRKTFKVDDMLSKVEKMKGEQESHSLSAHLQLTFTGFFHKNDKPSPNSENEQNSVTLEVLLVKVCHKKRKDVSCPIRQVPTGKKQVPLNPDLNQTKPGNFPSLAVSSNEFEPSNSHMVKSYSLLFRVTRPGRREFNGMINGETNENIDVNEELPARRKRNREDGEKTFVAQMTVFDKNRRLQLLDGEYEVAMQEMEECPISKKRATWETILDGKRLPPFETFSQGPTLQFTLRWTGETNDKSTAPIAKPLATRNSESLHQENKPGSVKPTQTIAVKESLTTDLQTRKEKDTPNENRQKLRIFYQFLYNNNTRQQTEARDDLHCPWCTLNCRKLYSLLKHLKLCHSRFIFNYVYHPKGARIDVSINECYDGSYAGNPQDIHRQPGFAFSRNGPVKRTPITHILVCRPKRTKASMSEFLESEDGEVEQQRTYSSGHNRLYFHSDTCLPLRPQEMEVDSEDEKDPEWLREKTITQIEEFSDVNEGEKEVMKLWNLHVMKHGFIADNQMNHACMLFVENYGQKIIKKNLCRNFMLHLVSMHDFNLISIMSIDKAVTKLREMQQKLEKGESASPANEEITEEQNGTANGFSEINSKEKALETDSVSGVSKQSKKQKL
purified human, His-tagged PRC2 complex, sequence (Q6ZN18 whole entry partner): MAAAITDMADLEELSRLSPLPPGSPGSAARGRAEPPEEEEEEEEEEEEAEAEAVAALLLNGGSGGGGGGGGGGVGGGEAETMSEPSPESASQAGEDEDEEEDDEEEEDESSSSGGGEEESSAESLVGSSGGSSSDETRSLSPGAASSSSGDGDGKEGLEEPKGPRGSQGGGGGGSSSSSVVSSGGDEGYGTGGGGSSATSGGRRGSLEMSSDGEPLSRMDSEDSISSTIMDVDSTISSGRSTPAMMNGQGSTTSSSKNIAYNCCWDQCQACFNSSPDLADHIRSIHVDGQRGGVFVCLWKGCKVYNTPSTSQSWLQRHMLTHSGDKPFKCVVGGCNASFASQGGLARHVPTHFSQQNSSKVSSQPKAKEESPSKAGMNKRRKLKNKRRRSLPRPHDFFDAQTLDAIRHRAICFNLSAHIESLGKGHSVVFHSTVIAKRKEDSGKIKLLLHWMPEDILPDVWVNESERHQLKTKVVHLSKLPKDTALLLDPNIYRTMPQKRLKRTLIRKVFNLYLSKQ
purified human, His-tagged PRC2 complex, sequence (Q09028 whole entry partner): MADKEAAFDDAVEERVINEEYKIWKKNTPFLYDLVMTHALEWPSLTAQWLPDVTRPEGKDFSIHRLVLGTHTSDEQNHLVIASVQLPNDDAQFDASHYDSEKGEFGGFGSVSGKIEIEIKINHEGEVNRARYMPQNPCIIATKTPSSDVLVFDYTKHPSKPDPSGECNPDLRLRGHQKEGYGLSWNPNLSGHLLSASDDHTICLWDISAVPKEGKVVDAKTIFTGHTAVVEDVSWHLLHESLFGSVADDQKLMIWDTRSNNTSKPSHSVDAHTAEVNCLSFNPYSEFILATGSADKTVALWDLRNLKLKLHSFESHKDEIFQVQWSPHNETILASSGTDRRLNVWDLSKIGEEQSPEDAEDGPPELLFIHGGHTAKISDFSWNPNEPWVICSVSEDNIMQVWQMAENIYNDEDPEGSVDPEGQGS

Row | SMILES | pIC50
1 | N#Cc1cn2c(NCc3c(F)ccc4c3CCO4)ncc(-c3ccc(CN4CCC(F)C4)cc3)c2n1 (stereo not shown) [Example 54, 5-(((5-fluoro-2,3-dihydrobenzofuran-4-yl)methyl)amino)-8-(4-((3-fluoropyrrolidin-1-yl)methyl)phenyl)imidazo[1,2-c]pyrimidine-2-carbonitrile] | > 7.00
2 | Cc1nc(N2CCOCC2)ccc1-c1cnc(NCc2c(F)ccc3c2CCO3)n2cc(C#N)nc12 [Example 56, 5-(((5-fluoro-2,3-dihydrobenzofuran-4-yl)methyl)amino)-8-(2-methyl-6-morpholinopyridin-3-yl)imidazo[1,2-c]pyrimidine-2-carbonitrile] | > 7.00
3 | CN(C)c1ccc(-c2cnc(NCc3c(F)ccc4c3CCO4)n3cc(C#N)nc23)cn1 [Example 60, 8-(6-(dimethylamino)pyridin-3-yl)-5-(((5-fluoro-2,3-dihydrobenzofuran-4-yl)methyl)amino)imidazo[1,2-c]pyrimidine-2-carbonitrile] | 6.30 to 7.00
4 | Cc1ncc(F)cc1-c1cnc(NCc2c(F)ccc3c2CCO3)n2cc(C#N)nc12 [Example 62, 5-(((5-fluoro-2,3-dihydrobenzofuran-4-yl)methyl)amino)-8-(5-fluoro-2-methylpyridin-3-yl)imidazo[1,2-c]pyrimidine-2-carbonitrile] | > 7.00
5 | Cc1nn(C[C@H](C)O)c(C)c1-c1cnc(NCc2c(F)ccc3c2CCO3)n2cc(C#N)nc12 [Example 65, (S)-5-(((5-fluoro-2,3-dihydrobenzofuran-4-yl)methyl)amino)-8-(1-(2-hydroxypropyl)-3,5-dimethyl-1H-pyrazol-4-yl)imidazo[1,2-c]pyrimidine-2-carbonitrile] | 6.30 to 7.00
6 | Cc1ccc(-c2cnc(NCc3c(F)ccc4c3CCO4)n3cc(C#N)nc23)c(C)n1 [Example 67, 8-(2,6-dimethylpyridin-3-yl)-5-(((5-fluoro-2,3-dihydrobenzofuran-4-yl)methyl)amino)imidazo[1,2-c]pyrimidine-2-carbonitrile] | > 7.00
7 | N#Cc1cn2c(NCc3c(F)ccc4c3CCO4)ncc(-c3cnccn3)c2n1 [Example 68, 5-(((5-fluoro-2,3-dihydrobenzofuran-4-yl)methyl)amino)-8-(pyrazin-2-yl)imidazo[1,2-c]pyrimidine-2-carbonitrile] | > 7.00
8 | Cc1ncc(-c2cnc(NCc3c(F)ccc4c3CCO4)n3cc(C#N)nc23)c(C)n1 [Example 71, 8-(2,4-dimethylpyrimidin-5-yl)-5-(((5-fluoro-2,3-dihydrobenzofuran-4-yl)methyl)amino)imidazo[1,2-c]pyrimidine-2-carbonitrile] | > 7.00
9 | CS(=O)(=O)c1ccc(-c2cnc(NCc3c(F)ccc4c3CCO4)n3cc(C#N)nc23)cc1 [Example 73, 5-(((5-fluoro-2,3-dihydrobenzofuran-4-yl)methyl)amino)-8-(4-(methylsulfonyl)phenyl)imidazo[1,2-c]pyrimidine-2-carbonitrile] | > 7.00
10 | Cc1cc(C(=O)N(C)C)ncc1-c1cnc(NCc2c(F)ccc3c2CCO3)n2cc(C#N)nc12 [Example 76, 5-(2-cyano-5-(((5-fluoro-2,3-dihydrobenzofuran-4-yl)methyl)amino)imidazo[1,2-c]pyrimidin-8-yl)-N,N,4-trimethylpicolinamide] | > 7.00
11 | N#Cc1cn2c(NCc3c(F)ccc4c3CCO4)ncc(C3CC3)c2n1 [Example 77, 8-cyclopropyl-5-(((5-fluoro-2,3-dihydrobenzofuran-4-yl)methyl)amino)imidazo[1,2-c]pyrimidine-2-carbonitrile] | 6.30 to 7.00
12 | Cc1n[nH]cc1-c1cnc(NCc2c(F)ccc3c2CCO3)n2cc(C#N)nc12 [Example 79, 5-(((5-fluoro-2,3-dihydrobenzofuran-4-yl)methyl)amino)-8-(3-methyl-1H-pyrazol-4-yl)imidazo[1,2-c]pyrimidine-2-carbonitrile] | > 7.00

The next lines start with the values.

Row | pIC50 | SMILES
13 | > 7.00 | N#Cc1cn2c(NCc3c(F)ccc4c3CCO4)ncc(-c3ccc(CN4CCC(F)(F)C4)cc3)c2n1 [Example 55, 8-(4-((3,3-difluoropyrrolidin-1-yl)methyl)phenyl)-5-(((5-fluoro-2,3-dihydrobenzofuran-4-yl)methyl)amino)imidazo[1,2-c]pyrimidine-2-carbonitrile]
14 | > 7.00 | N#Cc1cn2c(NCc3c(F)ccc4c3CCO4)ncc(-c3ccncn3)c2n1 [Example 57, 5-(((5-fluoro-2,3-dihydrobenzofuran-4-yl)methyl)amino)-8-(pyrimidin-4-yl)imidazo[1,2-c]pyrimidine-2-carbonitrile]
15 | > 7.00 | CN(C)S(=O)(=O)c1ccc(-c2cnc(NCc3c(F)ccc4c3CCO4)n3cc(C#N)nc23)cc1 [Example 58, 4-(2-cyano-5-(((5-fluoro-2,3-dihydrobenzofuran-4-yl)methyl)amino)imidazo[1,2-c]pyrimidin-8-yl)-N,N-dimethylbenzenesulfonamide]
16 | > 7.00 | CNS(=O)(=O)c1ccc(-c2cnc(NCc3c(F)ccc4c3CCO4)n3cc(C#N)nc23)cc1 [Example 59, 4-(2-cyano-5-(((5-fluoro-2,3-dihydrobenzofuran-4-yl)methyl)amino)imidazo[1,2-c]pyrimidin-8-yl)-N-methylbenzenesulfonamide]
17 | > 7.00 | CN(C)Cc1ccc(-c2cnc(NCc3c(F)ccc4c3CCO4)n3cc(C#N)nc23)c(F)c1 [Example 61, 8-(4-((dimethylamino)methyl)-2-fluorophenyl)-5-(((5-fluoro-2,3-dihydrobenzofuran-4-yl)methyl)amino)imidazo[1,2-c]pyrimidine-2-carbonitrile]
18 | > 7.00 | CN(C)Cc1ccc(-c2cnc(NCc3c(F)ccc4c3CCO4)n3cc(C#N)nc23)cc1F [Example 63, 8-(4-((dimethylamino)methyl)-3-fluorophenyl)-5-(((5-fluoro-2,3-dihydrobenzofuran-4-yl)methyl)amino)imidazo[1,2-c]pyrimidine-2-carbonitrile]
19 | > 7.00 | N#Cc1cn2c(NCc3c(F)ccc4c3CCO4)ncc(-c3cccnc3C(F)F)c2n1 [Example 64, 8-(2-(difluoromethyl)pyridin-3-yl)-5-(((5-fluoro-2,3-dihydrobenzofuran-4-yl)methyl)amino)imidazo[1,2-c]pyrimidine-2-carbonitrile]
20 | 6.30 to 7.00 | Cc1nn(C[C@@H](C)O)c(C)c1-c1cnc(NCc2c(F)ccc3c2CCO3)n2cc(C#N)nc12 [Example 66, (R)-5-(((5-fluoro-2,3-dihydrobenzofuran-4-yl)methyl)amino)-8-(1-(2-hydroxypropyl)-3,5-dimethyl-1H-pyrazol-4-yl)imidazo[1,2-c]pyrimidine-2-carbonitrile]
21 | > 7.00 | Cc1ncc(-c2cnc(NCc3c(F)ccc4c3CCO4)n3cc(C#N)nc23)cn1 [Example 69, 5-(((5-fluoro-2,3-dihydrobenzofuran-4-yl)methyl)amino)-8-(2-methylpyrimidin-5-yl)imidazo[1,2-c]pyrimidine-2-carbonitrile]
22 | > 7.00 | Cc1nn(C)cc1-c1cnc(NCc2c(F)ccc3c2CCO3)n2cc(C#N)nc12 [Example 72, 8-(1,3-dimethyl-1H-pyrazol-4-yl)-5-(((5-fluoro-2,3-dihydrobenzofuran-4-yl)methyl)amino)imidazo[1,2-c]pyrimidine-2-carbonitrile]
23 | > 7.00 | N#Cc1cn2c(NCc3c(F)ccc4c3CCO4)ncc(-c3ccc(CN4CCCC4)cc3)c2n1 [Example 74, 5-(((5-fluoro-2,3-dihydrobenzofuran-4-yl)methyl)amino)-8-(4-(pyrrolidin-1-ylmethyl)phenyl)imidazo[1,2-c]pyrimidine-2-carbonitrile]
24 | > 7.00 | N#Cc1cn2c(NCc3c(F)ccc4c3CCO4)ncc(-c3ccc(CN4CCOCC4)cc3)c2n1 [Example 75, 5-(((5-fluoro-2,3-dihydrobenzofuran-4-yl)methyl)amino)-8-(4-(morpholinomethyl)phenyl)imidazo[1,2-c]pyrimidine-2-carbonitrile]
25 | > 7.00 | N#Cc1cn2c(NCc3c(F)ccc4c3CCO4)ncc(-c3cnn4c3CCC4)c2n1 [Example 80, 8-(5,6-dihydro-4H-pyrrolo[1,2-b]pyrazol-3-yl)-5-(((5-fluoro-2,3-dihydrobenzofuran-4-yl)methyl)amino)imidazo[1,2-c]pyrimidine-2-carbonitrile]
26 | < 6.30 | Cc1cc(-c2cnc(NCc3c(F)ccc4sccc34)n3cc(C#N)nc23)n(C)n1 [Example 81, 8-(1,3-dimethyl-1H-pyrazol-5-yl)-5-(((5-fluorobenzo[b]thiophen-4-yl)methyl)amino)imidazo[1,2-c]pyrimidine-2-carbonitrile]
27 | 6.30 to 7.00 | N#Cc1cn2c(NCc3c(F)ccc4c3CCO4)ncc(-c3ccc(S(=O)(=O)C(F)(F)F)cc3)c2n1 [Example 82, 5-(((5-fluoro-2,3-dihydrobenzofuran-4-yl)methyl)amino)-8-(4-((trifluoromethyl)sulfonyl)phenyl)imidazo[1,2-c]pyrimidine-2-carbonitrile]
28 | > 7.00 | CN(C)Cc1ccc(-c2cnc(NCc3c(F)ccc4c3CCO4)n3cc(C#N)nc23)c(Cl)c1F [Example 83, 8-(2-chloro-4-((dimethylamino)methyl)-3-fluorophenyl)-5-(((5-fluoro-2,3-dihydrobenzofuran-4-yl)methyl)amino)imidazo[1,2-c]pyrimidine-2-carbonitrile]

— patent US20240398811A1, “PRC2 INHIBITORS FOR USE IN TREATING BLOOD DISORDERS” (ORIC Pharmaceuticals, Inc., priority 2021, published 2024)
